This passage reports fold change (FC) and Activity results from ChEMBL document CHEMBL2429758, “3-aroylmethylene-2,3,6,7-tetrahydro-1H-pyrazino[2,1-a]isoquinolin-4(11bH)-ones as potent Nrf2/ARE inducers in human cancer cells and AOM-DSS treated mice” (J Med Chem, 2013).

Test [1] deals with T1, Nuclear factor erythroid 2-related factor 2 (Homo sapiens) (UniProt Q16236).
T1 sequence (whole entry): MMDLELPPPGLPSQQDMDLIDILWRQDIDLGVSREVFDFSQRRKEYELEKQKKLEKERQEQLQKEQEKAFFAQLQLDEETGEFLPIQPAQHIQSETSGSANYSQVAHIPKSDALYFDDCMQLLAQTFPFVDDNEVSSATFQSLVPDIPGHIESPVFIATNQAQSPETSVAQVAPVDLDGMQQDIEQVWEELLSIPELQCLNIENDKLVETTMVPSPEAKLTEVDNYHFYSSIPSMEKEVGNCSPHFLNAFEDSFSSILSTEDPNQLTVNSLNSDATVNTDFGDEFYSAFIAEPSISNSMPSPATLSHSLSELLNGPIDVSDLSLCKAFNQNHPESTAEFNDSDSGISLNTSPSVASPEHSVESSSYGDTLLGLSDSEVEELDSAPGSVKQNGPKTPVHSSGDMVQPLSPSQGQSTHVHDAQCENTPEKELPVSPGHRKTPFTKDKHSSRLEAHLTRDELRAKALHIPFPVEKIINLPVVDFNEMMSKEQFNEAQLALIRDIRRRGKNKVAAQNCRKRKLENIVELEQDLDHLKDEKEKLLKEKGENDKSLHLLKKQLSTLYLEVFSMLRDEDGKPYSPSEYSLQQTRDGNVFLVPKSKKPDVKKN
The test can be described thus: Induction of Nrf2-mediated ARE activity in human HepG2-ARE-C8 cells at 80 uM after 12 hrs by luciferase reporter gene assay relative to control. It is filed as cell-based.

The target of test [2] is T1, Nuclear factor erythroid 2-related factor 2 (Homo sapiens). The test can be described thus: Induction of Nrf2-mediated ARE activity in human HepG2-ARE-C8 cells at 40 uM after 12 hrs by luciferase reporter gene assay relative to control. Type of test: cell-based.
For test [3] the target is unchanged. Kind of test: Induction of Nrf2-mediated ARE activity in human HepG2-ARE-C8 cells at 20 uM after 12 hrs by luciferase reporter gene assay relative to control. It is filed as cell-based.
For test [4] the target is unchanged. The test can be described thus: Induction of Nrf2-mediated ARE activity in human HepG2-ARE-C8 cells at 10 uM after 12 hrs by luciferase reporter gene assay relative to control. It is filed as cell-based.
Test [5] shares this target. Kind of test: Induction of Nrf2-mediated ARE activity in human HepG2-ARE-C8 cells at 5 uM after 12 hrs by luciferase reporter gene assay relative to control. It is filed as cell-based.
In test [6] the test system is HCT-116. Kind of test: Induction of NQO1 expression in human HCT116 cells up to 24 hrs by Western blot analysis. It is filed as functional, cell-based.
Test [7] has as its system HCT-116. The test can be described thus: Induction of HO-1 expression in human HCT116 cells up to 8 hrs by Western blot analysis. It is filed as functional, cell-based.
Test [8] has as its target T1, Nuclear factor erythroid 2-related factor 2 (Homo sapiens). Kind of test: Induction of Nrf2-mediated ARE activity in human HepG2-ARE-C8 cells at 1 uM after 12 hrs by luciferase reporter gene assay relative to control. Type of test: cell-based.
The target is the same in test [9]. The test can be described thus: Induction of Nrf2-mediated ARE activity in human HepG2-ARE-C8 cells at 0.1 uM after 12 hrs by luciferase reporter gene assay relative to control. Type of test: cell-based.
Test [10] shares this target. The test can be described thus: Induction of Nrf2-mediated ARE activity in human HepG2-ARE-C8 cells at 0.01 uM after 12 hrs by luciferase reporter gene assay relative to control. It is filed as cell-based.

Molecules are shown by their SMILES.

`CC(C)(C)c1cc(O)ccc1O`: the fold change (FC) in [1] was found to be 5.21; in test [2], 3.24; in test [3], 2.06; in [4], 1.5; in [5] it was 1.04.

`O=C(/C=C1\NCC2c3ccccc3CCN2C1=O)c1cccc(F)c1` (stereo unspecified): the Activity result in the test on HCT-116 [6] and with HCT-116 [7] was “Dose-dependent effect” in each case. Further, the fold change (FC) in [4] came to 33; in test [5], 29.1; in test [8], 9.99; in test [9], 3.89; in test [10], 2.18.

As for `O=C(/C=C1\NCC2c3ccccc3CCN2C1=O)c1ccccc1[N+](=O)[O-]` (stereo unspecified), the fold change (FC) in test [4] came to 2.8; in test [5], 2.41; in test [8], 1.3; in test [9], 1.29; in test [10] it was 1.28.

In the case of `COc1ccc2c(c1)C1CN/C(=C\C(=O)c3ccccc3F)C(=O)N1CC2` (stereo unspecified), the fold change (FC) came out at 12.4 in [4]; 9.84 in test [5]; 3.44 in [8]; 2.75 in [9]; 1.44 in test [10].

On to `COc1cccc2c1CCN1C(=O)/C(=C/C(=O)c3ccccc3)NCC21` (stereo unspecified), for which the fold change (FC) in [4] was 6.93; in [5] it was 6.89; in [8] it was 3.57; in test [9] it was 3.53; in [10] it was 1.

Regarding `COc1ccc2c(c1)CCN1C(=O)/C(=C/C(=O)c3ccccc3)NCC21` (stereo unspecified), the fold change (FC) in [4] was 5.36; in [5] it was 8.18; in test [8] it was 3.8; in test [9], 1.7; in [10], 0.65.

Turning to `COc1ccc2c(c1)C1CN/C(=C\C(=O)c3cccc(F)c3)C(=O)N1CC2` (stereo unspecified), the fold change (FC) in [4] stood at 20.4; in [5] it was 16.9; in test [8], 7.23; in test [9], 3.93; in test [10], 1.31.

Regarding `O=C(/C=C1\NCC2c3ccccc3CCN2C1=O)c1cc(F)cc(F)c1` (stereo unspecified), the fold change (FC) in [4] is 7.62; in [5], 5.22; in [8], 4.75; in test [9], 2.92; in [10], 1.34.

`O=C(/C=C1\NCC2c3ccccc3CCN2C1=O)c1ccccc1F` (stereo unspecified): the fold change (FC) in test [4] was 16.9; in test [5], 16.5; in test [8], 8.85; in test [9], 3.64; in [10] it was 2.5.

`COc1cc2c(cc1OC)C1CN/C(=C\C(=O)c3ccccc3)C(=O)N1CC2` (stereo unspecified): the fold change (FC) in [4] is 1.67; in test [5] it was 1.46; in [8], 1.35; in [9], 0.85; in test [10], 0.86.

With `COc1ccc(C(=O)/C=C2\NCC3c4ccccc4CCN3C2=O)cc1OC` (stereo unspecified), the fold change (FC) amounted to 2.15 in [4]; 2.11 in test [5]; 1.93 in test [8]; 1.77 in test [9]; 1.52 in [10].

For `COc1cc2c(cc1OC)C1CN/C(=C\C(=O)c3cccc(Cl)c3)C(=O)N1CC2` (stereo unspecified), the fold change (FC) is 1.44 in test [4]; 1.15 in [5]; 1.07 in test [8]; 1.47 in test [9]; 1.41 in test [10].

On to `O=C(/C=C1\NCC2c3ccccc3CCN2C1=O)c1cccc(Cl)c1` (stereo unspecified), for which the fold change (FC) in test [4] was determined as 16.5; in [5] it was 14; in test [8], 10.7; in [9], 3.77; in [10], 1.94.

In the case of `COc1ccc2c(c1)C1CN/C(=C\C(=O)c3cccc(Cl)c3)C(=O)N1CC2` (stereo unspecified), the fold change (FC) worked out at 7.28 in test [4]; 6.49 in [5]; 4.53 in test [8]; 2.28 in test [9]; 2.26 in test [10].

In the case of `COc1cc2c(cc1OC)C1CN/C(=C\C(=O)c3ccc(F)cc3)C(=O)N1CC2` (stereo unspecified), the fold change (FC) in test [4] is 1.25; in test [5], 1.82; in test [8], 2.7; in test [9] it was 1.42; in [10], 1.25.

On to `COc1ccc2c(c1)C1CN/C(=C\C(=O)c3ccc(F)cc3)C(=O)N1CC2` (stereo unspecified), for which the fold change (FC) in test [4] is 2.48; in test [5] it was 1.82; in [8], 1.74; in test [9], 1.35; in [10] it was 1.29.

As to `COc1ccc2c(c1)C1CN/C(=C\C(=O)c3ccccc3)C(=O)N1CC2` (stereo unspecified), the fold change (FC) turned out to be 13 in test [4]; 10.4 in [5]; 3.5 in test [8]; 1.93 in [9]; 1.35 in test [10].

`COc1ccc2c(c1)CCN1C(=O)/C(=C/C(=O)c3cccc(F)c3)NCC21` (stereo unspecified): the fold change (FC) in test [4] is 6.66; in test [5], 5.65; in test [8], 3.96; in test [9], 5.19; in [10] it was 1.83.

As to `COc1ccc2c(c1)C1CN/C(=C\C(=O)c3cccc([N+](=O)[O-])c3)C(=O)N1CC2` (stereo unspecified), the fold change (FC) in test [4] worked out at 6.5; in [5], 5.76; in [8], 3.08; in [9], 1.75; in test [10], 1.45.

`COc1cccc2c1CCN1C(=O)/C(=C/C(=O)c3cccc(F)c3)NCC21` (stereo unspecified): the fold change (FC) in test [4] was determined as 3.7; in test [5] it was 4.85; in [8] it was 4.02; in test [9], 1.43; in test [10], 0.79.

Consider `COc1cc2c(cc1OC)C1CN/C(=C\C(=O)c3cccc([N+](=O)[O-])c3)C(=O)N1CC2` (stereo unspecified), for which the fold change (FC) in test [4] was determined as 2.51; in [5], 1.44; in test [8] it was 1.03; in [9] it was 1.08; in test [10], 1.31.

For `COc1cccc(C(=O)/C=C2\NCC3c4ccccc4CCN3C2=O)c1` (stereo unspecified), the fold change (FC) in test [4] turned out to be 10; in [5] it was 8.65; in test [8] it was 5.68; in test [9] it was 3.69; in test [10], 1.48.

Regarding `O=C(/C=C1\NCC2c3ccccc3CCN2C1=O)c1ccccc1Cl` (stereo unspecified), the fold change (FC) was 6.04 in [4]; 5.46 in test [5]; 2.77 in test [8]; 2.19 in [9]; 1.19 in test [10].

On to `O=C(/C=C1\NCC2c3ccccc3CCN2C1=O)c1cccc(Br)c1` (stereo unspecified), for which the fold change (FC) in [4] was found to be 15.7; in [5], 12; in [8] it was 8.97; in test [9], 3.4; in test [10], 3.1.

Regarding `C[S+]([O-])CCCCN=C=S` (stereo unspecified), the fold change (FC) is 18.1 in test [3], 8.35 in [4], 5.52 in test [5] and 2.7 in test [8].

Turning to `COc1ccc2c(c1)CCN1C(=O)/C(=C/C(=O)c3ccccc3F)NCC21` (stereo unspecified), the fold change (FC) came out at 7.7 in test [4]; 5.18 in [5]; 3.73 in [8]; 1.45 in test [9]; 2.58 in [10].

For the molecule `Cc1ccc(C(=O)/C=C2\NCC3c4ccccc4CCN3C2=O)cc1` (stereo unspecified), the fold change (FC) in test [4] stood at 5.22; in [5], 4.42; in test [8], 3.25; in test [9], 3.3; in test [10] it was 2.01.

Consider `O=C(/C=C1\NCC2c3ccccc3CCN2C1=O)c1ccc(F)cc1` (stereo unspecified), for which the fold change (FC) in [4] was 14; in [5], 12.3; in test [8], 8; in test [9] it was 4.39; in test [10], 2.58.
